For six compounds, mass density results are on record in the NIST ThermoML archive (doi:10.1021/je300146k).

± gives the expanded uncertainty stated by the source.

The conditions of the data set: 298.15 K; 101.33 kPa; Liquid; Vibrating tube method.
Consider `CCCCCCCCCC` [decane], for which the mass density came to 726.43 ± 0.26 kg/m3.
Under `OCc1ccccc1` [benzenemethanol] stands 1043.53 ± 0.29 kg/m3; under `CCCCCCC` [heptane], 679.71 ± 0.21 kg/m3; under `CCCCCCCC` [octane], 698.76 ± 0.26 kg/m3.
As for `CCCCCCCCCCCCCC` [tetradecane], the mass density is 759.27 ± 0.26 kg/m3.
Under `CCCCCCCCCCCC` [dodecane] stands 741.54 ± 0.58 kg/m3.

By mass density is commonly meant mass per unit of volume.
